Where “and” joins values, the source holds several entries; their conditions need not be identical. Equal values may be shown once. Read-outs that look alike come from different tables or passages of the source. Values belong to the compound of their own block, whether it stands above or below them.
Experiments:
S. aureus (SA38) [1] = assay: Minimum inhibitory concentration (MIC) assay against S. aureus; type: cell-based, Staphylococcus aureus; details: Staphylococcus aureus, S. aureus SA38; read-out: MIC S. aureus
E. coli (K12) [2] = assay: Minimum inhibitory concentration (MIC) assay against E. coli; type: cell-based; details: Escherichia coli
P. aeruginosa (PAO1) [3] = assay: Minimum inhibitory concentration (MIC) assay against P. aeruginosa; type: cell-based; details: Pseudomonas aeruginosa
[4] = system: pre-established S. aureus biofilms; assay: Disruption of pre-established S. aureus biofilms (crystal violet assay); type: cell-based, Staphylococcus aureus
Procedure: As bacterial biofilms are one of the major challenges in treating bacterial infection, the ability of the synthesised peptidomimetics to disrupt pre-established biofilms was investigated.
(§1) Bacterial cultures (S. aureus and E. coli) were cultured in MHB at 37 °C with shaking at 120 rpm for 24 h. The resulting bacterial culture was washed twice with MHB with centrifugation after each wash. The bacterial solution was then diluted with fresh MHB to a turbidity of OD660 = 0.1 in MHB (equivalent to 10^8 colony forming unit (CFU)/mL of bacteria), followed by diluting to 10^6 CFU/mL in MHB. A total of 200 µL of the bacterial solution was dispensed to wells in a flat-bottom 96-well plate (Costar). The biofilm was then grown in the plate at 37 °C for 24 h. After incubation, loosely bound cells were washed away with 1× phosphate-buffered saline (PBS, pH 7.4). The biofilms were then supplemented with different concentrations of peptidomimetics dissolved in DMSO and incubated at 37 °C with shaking at 120 rpm for a further 24 h. Biofilms adhered on the plate substratum were quantified, using crystal violet staining as described previously. The experiment was performed in triplicate.

[5] = system: MRC-5 normal human lung fibroblasts; assay: MTT cytotoxicity assay; type: cell-based; details: Homo sapiens, MRC5, 72 h, 72 h drug incubation, read-out: IC50 against MRC-5 normal human lung fibroblasts
Procedure: The IC50 values of the tested peptidomimetics were determined from a dose-response curve. […] The therapeutic indices for each tested peptidomimetic against Gram-positive S. aureus and Gram-negative E. coli were calculated by dividing the IC50 value against human cells by the corresponding MIC value (Table 2).
The toxicity of the peptidomimetics against normal human lung fibroblasts MRC-5 cells was measured, using an MTT (3-(4,5-dimethylthiazol-2-yl)-2,5-diphenyltetrazolium bromide) (Sigma Aldrich, St. Louis, MO, USA) colorimetric assay. The cells were cultured in minimal essential medium (MEM, Invitrogen) containing 10% foetal bovine serum (FBS). The cells were maintained at 37 °C in 5% CO2 as an adherent monolayer and was passaged upon reaching confluence by standard cell culture techniques. MRC-5 cells were seeded at 5000 cells/well in 96-well plates to ensure full confluence (quiescence) and left overnight to adhere to the plate wells. The adherent cells were treated with 1–500 μM of compounds by dissolving in DMSO and serially diluting with media. TY-01 was used as the positive control. The final concentration of DMSO was 0.5% (v/v). After the 72 h drug incubation, […] stock MTT solution (5 mg/mL) was added, and the cells were incubated for another 3.5–4 h. The MTT solution containing media was carefully aspirated without displacing the purple crystals from the bottom, and […] acid-isopropanol was added to all wells and mixed slowly by shaking with an orbital shaker to dissolve the dark blue crystals. […] The determination of IC50 values was performed using GraphPad Prism 7 (GraphPad, San Diego, CA, USA). Each experiment was performed in triplicate and was repeated in three independent experiments.

[6] = system: pre-established E. coli biofilms; assay: Disruption of pre-established E. coli biofilms (crystal violet assay); type: cell-based, Escherichia coli
Procedure: as §1

[7] = system: S. aureus cytoplasmic membrane; assay: Cytoplasmic membrane permeability assay (diSC3-5 dye release); type: cell-based, Staphylococcus aureus; details: 1× and 2× MIC, read up to 15 min
Text: This dye readily partitions into and aggregates in bacterial cell membranes, quenching its own fluorescence. However, structural damage to the bacterial cell membrane causes a loss in the membrane potential, which results in the leakage of dye from the bacterial cell membrane into the medium and an increase in fluorescence intensity. By detecting changes in fluorescence intensity, the integrity of the bacterial cytoplasmic membrane can be monitored.
Membrane potential sensitive dye diSC3–5 (3,3′-dipropylthiadicarbocyanine iodide), which penetrates inside bacterial cells depending on the membrane potential gradient of the cytoplasmic membrane, was used to determine the bacterial cytoplasmic membrane permeability following the procedure previously described with slight modification. Bacteria (S. aureus) were incubated in MHB with shaking at 37 °C for 16 h. After incubation, the bacteria were washed with 5 mM HEPES, supplemented with 20 mM glucose at pH 7.2 and diluted in the same buffer to an OD600 0.05–0.06 (equivalent to a final concentration of 10^7 CFU/mL bacteria). The diSC3–5 dye was added at 4 μM to the bacterial suspension. […] Fluorescence due to the release of dye was measured with a FLUOstar Omega (BMG Labtech) microplate reader at 5 min intervals at an excitation wavelength of 621 nm and an emission wavelength of 670 nm.

S. aureus (SA38) [8] = details: previously reported, cited from earlier work
E. coli (K12) [9] = system: E. coli (K12); design: method as in PMID 32947921; details: previously reported, cited from earlier work
P. aeruginosa (PAO1) [10] = system: P. aeruginosa (PAO1); design: method as in PMID 32947921; details: previously reported, cited from earlier work
[11] = highest concentration tested 250 μM
[12] = 4× MIC, 24 h treatment (32 μM for 17c)

SMILES: CCCCCCCCCCCCS(=O)(=O)Nc1ccccc1C(=O)C(=O)NCCCNC(=N)N.Cl [Compound 34a, 2-(2-(Dodecylsulfonamido)phenyl)-N-(3-guanidinopropyl)-2-oxoacetamide hydrochloride]
- MIC (S. aureus (SA38) [1]): 8 µM and 4.3 µg/mL
- MIC (E. coli (K12) [2]): 16 µM and 8.5 µg/mL
- MIC (P. aeruginosa (PAO1) [3]): > 133 µg/mL
- MIC (P. aeruginosa (PAO1) [3]; [11]): > 250 µM
- disruption of pre-established S. aureus biofilms ([4]; 1× MIC, 24 h treatment): 20–36%
- disruption of pre-established S. aureus biofilms [4, 12]: 42%
- disruption of pre-established E. coli biofilms ([6]; 1× and 2× MIC, 24 h treatment): unable to disrupt any pre-established E. coli biofilms
- S. aureus cytoplasmic membrane disruption (increase in fluorescence intensity) [7]: most active compound at 2× MIC
- IC50 [5]: 27.2 µM and 14.5 µg/mL
- melting point: 70 to 72.8 °C

SMILES: CCCCCCCCCCCCS(=O)(=O)Nc1ccc(Br)cc1C(=O)C(=O)NCCC[N+](C)(C)C.[I-] [Compound 17b, 3-(2-(5-Bromo-2-(dodecylsulfonamido)phenyl)-2-oxoacetamido)-N,N,N-trimethylpropan-1-aminium iodide]
- MIC (S. aureus (SA38) [1]): 8 µM and 5.6 µg/mL
- MIC (E. coli (K12) [2]): 32 µM and 22 µg/mL
- MIC (P. aeruginosa (PAO1) [3]): > 176 µg/mL
- MIC (P. aeruginosa (PAO1) [3]; [11]): > 250 µM
- disruption of pre-established S. aureus biofilms ([4]; 1× MIC, 24 h treatment): 20–36%
- disruption of pre-established S. aureus biofilms [4, 12]: 38%
- disruption of pre-established E. coli biofilms ([6]; 2× MIC, 24 h treatment (64 μM for 17c)): 31%
- IC50 [5]: 18.3 µM and 12.9 µg/mL

SMILES: CCCCCCCCS(=O)(=O)Nc1ccc(-c2ccccc2)cc1C(=O)C(=O)NCCCNC(=N)N [Compound 33c]
- MIC S. aureus (S. aureus (SA38) [8]): 8 μM and 4.4 μg/mL
- MIC E. coli (E. coli (K12) [9]): 63 μM and 35 μg/mL
- MIC P. aeruginosa (P. aeruginosa (PAO1) [10]): 63 μM and 35 μg/mL

SMILES: CCCCCCCCS(=O)(=O)Nc1ccc(-c2ccccc2)cc1C(=O)C(=O)NCCC[N+](C)(C)C [Compound 16c]
- MIC S. aureus (S. aureus (SA38) [8]; listed as 2, 16c): 16 μM and 10 μg/mL
- MIC S. aureus (S. aureus (SA38) [8]; listed as 2): 16 µM
- MIC S. aureus (S. aureus (SA38) [8]): 10 µg/mL
- MIC E. coli (E. coli (K12) [9]; listed as 2, 16c): 32 μM and 21 μg/mL
- MIC E. coli (E. coli (K12) [9]; listed as 2): 32 µM
- MIC P. aeruginosa (P. aeruginosa (PAO1) [10]; listed as 2, 16c): 125 μM and 80 μg/mL
- MIC P. aeruginosa (P. aeruginosa (PAO1) [10]): 125 μM and 80 μg/mL

SMILES: CCCCCCCCCCCCCCCCS(=O)(=O)Nc1ccc(-c2ccccc2)cc1C(=O)C(=O)NCCCN(C)C [Compound 12c, N-(3-(Dimethylamino)propyl)-2-(4-(hexadecylsulfonamido)-[1,1′-biphenyl]-3-yl)-2-oxoacetamide]
- MIC (S. aureus (SA38) [1]): > 250 µM and > 153 µg/mL
- melting point: 76.7 to 79.4 °C

SMILES: CCCCCCCCCCCCCCCCS(=O)(=O)Nc1ccccc1C(=O)C(=O)NCCC[N+](C)(C)C.[I-] [Compound 18a, 3-(2-(2-(Hexadecylsulfonamido)phenyl)-2-oxoacetamido)-N,N,N-trimethylpropan-1-aminium iodide]
- MIC (S. aureus (SA38) [1]): 8 µM and 5.4 µg/mL
- MIC (E. coli (K12) [2]): > 250 µM
- MIC (P. aeruginosa (PAO1) [3]; [11]): > 250 µM
- disruption of pre-established S. aureus biofilms ([4]; 1× MIC, 24 h treatment): 20–36%
- IC50 [5]: 52.4 µM and 35.6 µg/mL

SMILES: CCCCCCCCS(=O)(=O)Nc1ccc(-c2ccc(-c3ccccc3)cc2)cc1C(=O)C(=O)NCCCNC(=N)N.Cl [Compound 33d, N-(3-Guanidinopropyl)-2-(4-(octylsulfonamido)-[1,1′:4′,1″-terphenyl]-3-yl)-2-oxoacetamide hydrochloride]
- MIC (S. aureus (SA38) [1]): 16 µM and 10 µg/mL
- IC50 [5]: 16.9 µM and 10.6 µg/mL
- melting point: 49.6 to 50.1 °C

Continued, in another order:

- MIC (S. aureus (SA38) [1]): 16 µM and 9.8 µg/mL
- MIC (E. coli (K12) [2]): > 250 µM and > 153 µg/mL
- MIC (P. aeruginosa (PAO1) [3]): > 153 µg/mL
- MIC (P. aeruginosa (PAO1) [3]; [11]): > 250 µM
- melting point: 50 to 50.1 °C
SMILES: CCCCCCCCCCCCS(=O)(=O)Nc1ccc(Br)cc1C(=O)C(=O)NCCCNC(=N)N.Cl [Compound 34b, 2-(5-Bromo-2-(dodecylsulfonamido)phenyl)-N-(3-guanidinopropyl)-2-oxoacetamide hydrochloride]
- disruption of pre-established S. aureus biofilms ([4]; 1× MIC, 24 h treatment): 20–36% and 36%
- disruption of pre-established S. aureus biofilms [4, 12]: 42%
- IC50 [5]: 21.1 µM and 14.8 µg/mL

- MIC (S. aureus (SA38) [1]): > 250 µM and > 166 µg/mL
- melting point: 74.5 to 77.1 °C
SMILES: CCCCCCCCCCCCCCCCS(=O)(=O)Nc1ccc(-c2ccccc2)cc1C(=O)C(=O)NCCCNC(=N)N.Cl [Compound 35c, N-(3-Guanidinopropyl)-2-(4-(hexadecylsulfonamido)-[1,1′-biphenyl]-3-yl)-2-oxoacetamide hydrochloride]

- MIC (S. aureus (SA38) [1]): 32 µM and 19 µg/mL
- melting point: 73.2 to 73.5 °C
SMILES: CCCCCCCCCCCCS(=O)(=O)Nc1ccc(-c2ccccc2)cc1C(=O)C(=O)NCCCNC(=N)N.Cl [Compound 34c, 2-(4-(Dodecylsulfonamido)-[1,1′-biphenyl]-3-yl)-N-(3-guanidinopropyl)-2-oxoacetamide hydrochloride]

- MIC (S. aureus (SA38) [1]): > 250 µM and > 167 µg/mL
- melting point: 64.3 to 66.6 °C
SMILES: CCCCCCCCCCCCCCCCS(=O)(=O)Nc1ccc(Br)cc1C(=O)C(=O)NCCCNC(=N)N.Cl [Compound 35b, 2-(5-Bromo-2-(hexadecylsulfonamido)phenyl)-N-(3-guanidinopropyl)-2-oxoacetamide hydrochloride]

Reference: paper PMC8303886, “Polyphenylglyoxamide-Based Amphiphilic Small Molecular Peptidomimetics as Antibacterial Agents with Anti-Biofilm Activity” (International Journal of Molecular Sciences, 2021)
